This is an account of results in US5618804A, “Methanediphosphonic acid derivative, process for production thereof and use for pharmaceuticals” (Toray Industries, Inc., priority 1992, dated 1997).

One assay deals with osteoclasts. The experiment in a line: Inhibition of active-type vitamin D3-stimulated bone resorption (resorption pit formation on dentin slices). The format is cell-based, mouse (ICR). Conditions: 10 nM active-type vitamin D3, 4 days. From the text:
In conditions of osteoporosis, it is thought that the balance between bone formation and bone resorption is lost, with bone resorption being accelerated. Bone resorption is thought to occur due to the activation and increase in the number of osteoclasts, and a model thereof is an experiment in which mouse osteocytes are planted on dentin slices, causing bone resorption due to the stimulation of active-type vitamin D3. Using this model, the bone resorption-inhibiting effects of the compounds according to the present invention were determined.
The femurs and tibias were separated from 10 to 15- day-old ICR mice, and minced in an α-MEM culture medium containing 5% fetal calf serum, and an osteoclast suspension was prepared containing bone marrow cells and bone matrix. The large bone fragments were removed using a nylon mesh, and the viable cells were stained using trypan blue staining, while the osteoclasts were stained using tartaric acid-resistant acidic phosphatase staining, and a cell suspension was prepared which contained the osteoclasts at a proportion of about 0.05-0.1%. The dentin was cut to thicknesses of 150 μm using a low-speed rotating diamond cutter, and punched with a puncher to the size of wells of a 96-well plate. The dentin slices were placed in a 96-well plate, and the cell suspension prepared as described above was placed thereupon to a concentration of 500 osteoclasts per well. As a stimulant, 10 nM active-type vitamin D3 was added thereto, and at the same time the preparations according to the present invention were added thereto to concentrations of 10 μM and 100 μM. The cells were cultured at 37° C. in 10% CO2 environment, and after 4 days' culture the resorption pits which formed on the dentin slices were stained with hematoxylin, and then observed under a microscope and counted. The rate of inhibition of resorption pit formation was calculated according to the following equation. [formula]
The results were indicated with "*" in cases where, based on statistical calculation using the Student t-test, the level of significance was P<0.05 and with "**" in cases where the level of significance was P<0.01 with respect to the active-type vitamin D3 -stimulated control group.

A further assay has as its system adjuvant arthritis. The experiment in a line: Adjuvant arthritis test (foot edema and osteoclasia). It is filed as in vivo, rat (7-week-old female Lewis rats). The settings on record: 20 mg/kg s.c., days 8-21; for Inhibition rate of osteoclasia with respect to control group: 22nd day, left and right hind legs, soft X-ray.
A further assay concerns Rabbit cartilage cells. The assay is described as follows: IL-1-inhibiting effect: proteoglycan degradation in IL-1-stimulated rabbit cartilage cells. It is filed as cell-based, rabbit (New Zealand white). Conditions: IL-1-stimulated (30 units/ml rhIL-1β), 100 μM compound, 24 h. The method, then: Rabbit cartilage cells are separated from knee joint and cultured. When they are stimulated with IL-1, proteoglycan, the main constituent glycoprotein of cartilage cells, is degraded. Using this consequence as an index, the IL-1-inhibiting effects of the compounds according to the present invention were determined in the following manner.
Three-week-old male New Zealand white rabbits weighing 250 g-300 g were sacrified under diethyl ether anesthesia, and their knee joints were separated. The cartilaginous sections were cut out from the knee joint with a scalpel, and then immersed in CMF solution containing 0.14M sodium chloride, 4 mM potassium chloride, 0.4 mM sodium dihydrogen phosphate, 12 mM sodium bicarbonate, 0.2 mM potassium dihydrogen phosphate and 11 mM glucose. The cartilage was placed in 0.1% EDTA and incubated at 37° C. for 20 minutes. The supernatant was removed off, 0.15% trypsin was added to the mixture, and then that was incubated at 37° C. for 60 minutes. The mixture was washed 3 times with CMF solution, and then placed in […] and further treated at 37° C. for 105 minutes. […]
Each of the obtained counts was divided by the count at the initial addition of inorganic sulfuric acid, and expressed as a percentage. […]

Another assay concerns neutrophils. The assay is described as follows: Inhibition of active oxygen release from fMLP-stimulated human neutrophils (CLA chemiluminescence). It is filed as cell-based. The settings on record: 10 μm (so in the source). The method, then:
Neutrophils are known to ingest foreign bodies for their removal and to produce active oxygen and digestive enzymes, as a biological defense mechanism. However, during chronic inflammation, etc., the active oxygen and digestive enzymes produced by neutrophils also damage normal tissue, and are thought to further reinforce inflammation. Here, the effects of the compounds according to the present invention against the release of active oxygen from neutrophils were determined in the following manner.
Using 3.8% sodium citrate as an anticoagulant, 50 ml of blood was taken from a human vein. […] Of these neutrophils, 1×10^5 cells were incubated at 37° C. with […] of the stimulant, formyl-methionyl-leucyl-phenylalanine (fMLP), and at the same time the compounds according to the present invention were added thereto and the production of active oxygen was measured. For the measurement of the active oxygen, 2-methyl-6-phenyl-3,7-dihydroimidazo [1,2a]pyrazine-3-one (CLA) was reacted therewith resulting in excited carbonyl compounds, and utilizing the phenomenon whereby light is emitted at 380 nm during their transition to ground state, the maximum luminescence intensity was measured with a luminometer. The inhibition rate against active oxygen production was calculated according to the following equation. […]

Assay [1] concerns Mouse Macrophage Cell Line J774-1. The assay is described as follows: Inhibition of IL-1 production by LPS-stimulated mouse macrophage cell line J774-1 (IL-1 activity by thymocyte proliferation). The format is cell-based. Conditions: 100 μM compound, 1 μg/ml LPS, 24 h, read-out: IL-1 production inhibition rate with respect to control group. The method, then:
Effect Against Production of IL-1 by Mouse Macrophage Cell Line J774-1
With this cell line, the inhibitory effects to IL-1 production of the compounds according to the present invention were determined by the following procedure.
J774-1 cells were cultured in an RPMI-1640 culture medium containing 10% fetal calf serum and 50 μM of 2-mercaptoethanol, and prepared to a cell concentration of 2×10^5 cells/ml. The cell suspension was distributed into a 24-well plate to 1 ml per well, and cultured for 30 minutes. […]
A two-fold serial dilution was made of the above obtained sample in a 96-well multiplate to a volume of 50 μl per well, and 50 μl of the T cell suspension was added to each well. The T cells were cultured for 72 hours, and the IL-1 activity was determined by the rate of cell proliferation. The cell proliferation was calculated using as the value of the absorbance at 570 nm of the pigment produced upon reduction of 3-[4,5-dimethylthiazole-2-yl]-2,5-diphenyltetrazolium bromide by the mitochondria of the viable cells, added at 4 hours prior to completion of the culturing, with 100% proliferation defined as the maximum proliferation of T cells induced by recombinant human IL-1, 0% defined as proliferation with no addition of IL-1, and the units of the sample defined as the degree of dilution of the sample which caused 50% proliferation of the T cells. […]

Broadly, the inhibition is the share of the control response that was lost under treatment.

As for `O=P(O)(O)C(Sc1ccc2cc(O)ccc2c1)P(=O)(O)O` [Example 6, 6-Hydroxy-2-naphthylthiomethanediphosphonic Acid], the “Inhibition rate (resorption pit formation) with respect to control” value stood at 30.6 ± 12.5% with osteoclasts (10 μM) and 90.8 ± 1.33% with osteoclasts (100 μM). The “Inhibition rate of osteoclasia with respect to control group” value (“Inhibition rate of osteoclasia” below) with adjuvant arthritis worked out at 60.3%. Moreover, the “Inhibition rate of edema with respect to control group” value (from here on “Inhibition rate of edema”) in the assay with adjuvant arthritis (left paw, 16th day) was 85.6%; in the assay with adjuvant arthritis (left paw, 21st day), 117.3%; with adjuvant arthritis (right paw, 16th day), 31.8%; in the assay on adjuvant arthritis (right paw, 21st day) it was 39.9%.

For `COc1ccc2cc(SC(P(=O)(O)O)P(=O)(O)O)ccc2c1` [Example 4, 6-Methoxy-2-naphthylthiomethanediphosphonic Acid], the “Inhibition rate (resorption pit formation) with respect to control” value with osteoclasts (10 μM) stood at 47.7 ± 2.18%; with osteoclasts (100 μM), 94.8 ± 1.04%. Further, the “Inhibition rate of osteoclasia” value in the assay on adjuvant arthritis was 55.2%. The “Inhibition rate of edema” value in the assay on adjuvant arthritis (left paw, 17th day) turned out to be 80.0%; in the assay with adjuvant arthritis (left paw, 21st day), 93.0%; in the assay with adjuvant arthritis (right paw, 17th day), 40.8%; in the assay with adjuvant arthritis (right paw, 21st day), 33.4%.

Regarding `O=P(O)(O)C(Sc1ccc2ccccc2c1)P(=O)(O)O` [Example 2, 2-naphthylthiomethane Diphosphonic Acid], in the assay with Rabbit cartilage cells (not stimulated 0.45, IL-1-stimulated control 0.11), the “proteoglycan count in cell layer relative to count at initial addition of inorganic sulfuric acid” value turned out to be 0.31 ± 0.011. In addition, the “proteoglycan count in supernatant relative to count at initial addition of inorganic sulfuric acid” value with Rabbit cartilage cells (not stimulated 0.63, IL-1-stimulated control 1.06) turned out to be 0.78 ± 0.015. The “Inhibition rate (resorption pit formation) with respect to control” value in the assay with osteoclasts (10 μM) was found to be 18.8 ± 6.23%; in the assay with osteoclasts (100 μM), 92.1 ± 0.43%. For the same compound, the “Active oxygen production inhibition rate” value in the assay on neutrophils is recorded as 29.4 ± 6.58%. For the same compound, in the assay on adjuvant arthritis, the “Inhibition rate of osteoclasia” value is 75.2%. Also, the “Inhibition rate of edema” value is recorded as 76.8% in the assay with adjuvant arthritis (left paw, 17th day); 94.5% in the assay with adjuvant arthritis (left paw, 21st day); 35.2% in the assay on adjuvant arthritis (right paw, 17th day); 44.3% in the assay with adjuvant arthritis (right paw, 21st day). In addition, in assay [1], the inhibition at 100 µM stood at 41.7%.
